Measurements taken from patent publication US20260137807A1, “COMPOSITIONS AND METHODS FOR DELIVERING A MACROMOLECULE TO A CELL” (AstraZeneca AB, priority 2022, published 2026).

Assays:
mCherry-GAL9 cells = assay: mCherry-GAL9 assay in live cells for 4 hours, screening; assay type: cell-based; settings: 5 μM (FIG. 6-8)
Procedure: Cells were subjected to a 10-point concentration dilution (0-15 μM) for 2 hours and then fixed and imaged (FIG. 3 and FIG. 4). Images were analyzed and curves were generated from both mCherry-GAL9 puncta quantitation and cell survival as determined by nuclear morphology (FIG. 5). The GAL9 recruitment response support the functional splice-switching data with SSOs, confirming the mCherry-GAL9 assay as a powerful tool for screening endosomolytic compounds and supporting the hypothesis that AZ2467 (Compound 6) and AZ4800 (Compound 2) promote SSO activity by inducing endosomal rupture. The GAL9 assay was again conducted, this time in live cells for 4 hours with select compounds for screening. Compounds were screened at 5 μM (FIG. 6-8) or 0.3125-10 μM (FIG. 35-38). FIG. 39 and FIG. 47 provide results for select compounds at various doses 0.3125-10 μM.

T-47D cells = assay: Co-delivery of Cre recombinase, in vitro editing GFP reporter; assay type: cell-based; settings: for editing: 50 nM Cre
From the text: Cre recombinase was co-administered with Compound 4 to assess improvement in editing efficiency in an in vitro reporter system in which edited cells express GFP. Total cell counts are shown as unfilled bars (FIG. 43A, left panel); viable cells are shown in light gray shaded bars (FIG. 43A, middle panel); edited cell counts are shown in green shaded bars, and edited cell percentage is shown as the dotted line (FIG. 43A, right panel).
The media change increased cell viability, as shown by the difference between the left and right panels of FIGS. 43B and 43C. […] Greater than 80% editing was observed when Cre protein was co-administered with 2 μM or 3 μM Compound 4 in the media changed condition, and 3 μM Compound 4 in the media unchanged condition.

Floxed mice = assay: Co-delivery of Cre recombinase, in vivo editing tdTomato reporter, ICV
Procedure: Cre recombinase ([…] […] […] […] […] […] […] (SEQ ID NO: 10)) was co-administered with Compound 4 to assess improvement in editing efficiency in an in vivo reporter system, in which edited mice express tdTomato. Floxed mice were administered via intracerebroventricular injection (ICV) with 60 pmol Cre recombinase and varying concentrations (2.5, 5.0, 7.5, 10.0, 12.5, and 15 μM) of Compound 4 as calculated in 40 μL CSF volume. Brain segments were analyzed by immunofluorescent staining 7 days post-treatment.

MALAT1 mRNA = assay: MALAT1 knockdown by gapmer, real-time PCR; assay type: cell-based, mouse; settings: 2 μM AZ3327 with 2 μM gapmer, N2A cells, FIG. 28
Procedure: N2A cells were cultured in Dulbecco's modified eagle medium (Gibco, 31,966) containing 10% fetal bovine serum (Gibco, 10,270) and were maintained at 37° C. in a humidified atmosphere containing 5% CO2, 21% O2.
For knockdown analysis of the gapmers, 24-well plates 50,000 N2A cells in 500 μL total volume of media per well. Twenty-four hours later, the cells were treated with 2 μM MALAT1-targeting gapmer oligonucleotide having the sequence GM5CAttm5ctaatagm5cAGM5C, where m5c is 5-methylcytidine and capital letters are LNA nucleosides (SEQ ID NO:4) (Oligo Only), 2 μM MALA T1-targeting gapmer oligonucleotide and simultaneously 2 μM AZ3327 (2 μM AZ3327), or Lipofectamine-complexed MALAT1 Oligonucleotide at 200 nM (LF2000). All treatments were performed in biological triplicates. […] RNA concentration was measured via Nanodrop and cDNA was synthesized with High Capacity cDNA Reverse Transcription kit as per manufacturer's instructions (ThermoFisher Scientific, 4368814).
Real-time PCR reactions were run on QuantStudio 7 Flex Real-Time PCR System (Applied Biosystems) using MALAT1 TaqMan assays (mouse Mm01227912, Applied Biosystems) following the manufacturer's instructions. […] The absolute mRNA expression levels for MALAT1 were calculated by linear regression fitting the PCR product to a standard curve. […]

HEK cells = assay: Co-delivery of ABE8e base editor, GFP reporter; assay type: cell-based; settings: 50 nM ABE8e, Compound 4 concentrations above 2.5 μM, FIG. 46B
Procedure: The ABE8e base editor comprising SpCas9 D10A nickase and a modified TadA adenosine deaminase (Richter et al., Nature Biotechnol. 38:883-891 (2020)) was co-administered with Compound 4 to assess improvement in editing efficiency in an in vitro reporter system in which edited cells express GFP. […] The bar shading and lines showing total cell counts, viable cells, and edited cells are the same as in FIG. 43A.
HEK cells were co-administered with a fixed concentration (50 nM) of ABE8e and varying concentrations of AZ3327 (Compound 4). The results in FIG. 46B show greater than 90% editing efficiency at Compound 4 concentrations of above 2.5 μM.
HEK and N2a cells were co-administered with a fixed concentration (2.5 μM) of Compound 4 and varying concentrations of ABE8e.

[1] = system: anti-CD3/28 stimulated T cells; assay: Co-delivery of Cre recombinase, ex vivo editing of T cells; assay type: cell-based, mice
Procedure: The combination of Cre recombinase with Compound 4 was also tested in ex vivo editing of anti-CD3/28 stimulated T cells. […], then treated with 2.5 μM of Compound 4 with varying concentrations of Cre recombinase (50, 100, 200, 500 and 1000 nM), either on a U-plate with no mixing (T1) or mixed in a tube shaker during treatment (T2).

[2] = non-activated T cells, FIG. 45A

## COc1nn(C2CCNCC2)cc1Nc1ncc(Cl)c(-n2ccc3c(C#N)cccc32)n1 [Compound 2]
mCherry-GAL9 cells
  GAL9 recruitment, reason for selection for further characterization: efficacy at shorter-term timepoints

## COc1nn(C2CCNCC2)cc1Nc1ncc(F)c(-n2ccc3c(C#N)cccc32)n1 [Compound 4]
T-47D cells; 50 nM Cre protein, 0, 1, 2 or 3 μM compound, FIG. 43B
  editing efficiency: improved editing efficiency in T-47D cells in a dose-dependent manner
T-47D cells; 2 μM compound, media changed after 2 hours
  editing: Greater than 80%
T-47D cells; 3 μM compound, media changed after 2 hours
  editing: Greater than 80%
T-47D cells; 3 μM compound, media unchanged
  editing: Greater than 80%
Floxed mice; ICV, 60 pmol Cre, 2.5-15 μM compound, 7 days post-treatment
  in vivo editing in the brain (tdTomato staining): enhanced by Compound 4 in a dose-dependent manner
Floxed mice; ICV, 60 pmol Cre, FIG. 44B
  staining in the lumbar sections of the spinal cord: obvious staining
Floxed mice; dissection segments, FIG. 44C
  location of editing: primarily at the injection site
MALAT1 mRNA
  knockdown of MALAT1 mRNA expression as compared to oligo alone: enhanced knockdown of MALAT1 mRNA expression
HEK cells
  editing efficiency: greater than 90%
[1]; activated T cells, 2.5 μM compound, FIG. 45C
  editing efficiency: greater than 90%
[1]; activated T cells, FIG. 45C
  proliferative capacity: without affecting proliferative capacity
[1]; [2]
  editing: highly edited
  proliferation rate: compromised
